Results: the NIST ThermoML archive (doi:10.1016/j.jct.2015.08.014)
Numbers after ± are expanded uncertainties.

Assay: xn = mol fraction of the nth substance listed
Details: 298.15 K, 100 kPa, Liquid; for viscosity: Capillary tube (Ostwald / Ubbelohde) method; for electrical conductivity: Alternating current cell with electrodes

CCCC[N+]1(C)CCCC1.N#CN=C=[N-] [1-butyl-1-methylpyrrolidinium dicyanamide] + O=C1CCCO1
2.53 ± 0.026 S/m: electrical conductivity (Frequency=0.001 MHz, x1 = 0.3029) | electrical conductivity (Frequency=0.0015 MHz, x1 = 0.3029)
2.36 ± 0.024 S/m: electrical conductivity (Frequency=0.001 MHz, x1 = 0.3845) | electrical conductivity (Frequency=0.0015 MHz, x1 = 0.3845) | electrical conductivity (Frequency=0.002 MHz, x1 = 0.3845) | electrical conductivity (Frequency=0.0025 MHz, x1 = 0.3845) | electrical conductivity (Frequency=0.003 MHz, x1 = 0.3845) | electrical conductivity (Frequency=0.00347222 MHz, x1 = 0.3845) | electrical conductivity (Frequency=0.004 MHz, x1 = 0.3845) | electrical conductivity (Frequency=0.00446429 MHz, x1 = 0.3845)
2.21 ± 0.027 S/m: electrical conductivity (Frequency=0.0015 MHz, x1 = 0.0987) | electrical conductivity (Frequency=0.002 MHz, x1 = 0.0987) | electrical conductivity (Frequency=0.0025 MHz, x1 = 0.0987) | electrical conductivity (Frequency=0.003 MHz, x1 = 0.0987) | electrical conductivity (Frequency=0.00347222 MHz, x1 = 0.0987) | electrical conductivity (Frequency=0.004 MHz, x1 = 0.0987) | electrical conductivity (Frequency=0.00446429 MHz, x1 = 0.0987) | electrical conductivity (Frequency=0.005 MHz, x1 = 0.0987)
2.35 ± 0.024 S/m: electrical conductivity (Frequency=0.0005 MHz, x1 = 0.3845)
2.08 ± 0.021 S/m: electrical conductivity (Frequency=0.0005 MHz, x1 = 0.4985) | electrical conductivity (Frequency=0.001 MHz, x1 = 0.4985) | electrical conductivity (Frequency=0.0015 MHz, x1 = 0.4985) | electrical conductivity (Frequency=0.002 MHz, x1 = 0.4985) | electrical conductivity (Frequency=0.0025 MHz, x1 = 0.4985) | electrical conductivity (Frequency=0.003 MHz, x1 = 0.4985) | electrical conductivity (Frequency=0.00347222 MHz, x1 = 0.4985) | electrical conductivity (Frequency=0.004 MHz, x1 = 0.4985) | electrical conductivity (Frequency=0.00446429 MHz, x1 = 0.4985)
2.61 ± 0.026 S/m: electrical conductivity (Frequency=0.0015 MHz, x1 = 0.2493) | electrical conductivity (Frequency=0.002 MHz, x1 = 0.2493)
2.2 ± 0.027 S/m: electrical conductivity (Frequency=0.0005 MHz, x1 = 0.0987) | electrical conductivity (Frequency=0.001 MHz, x1 = 0.0987)
28.31 ± 0.64 mPa·s: viscosity (x1 = 0.9013)
1.68 ± 0.017 S/m: electrical conductivity (Frequency=0.001 MHz, x1 = 0.6954) | electrical conductivity (Frequency=0.0015 MHz, x1 = 0.6954) | electrical conductivity (Frequency=0.002 MHz, x1 = 0.6954) | electrical conductivity (Frequency=0.0025 MHz, x1 = 0.6954) | electrical conductivity (Frequency=0.003 MHz, x1 = 0.6954) | electrical conductivity (Frequency=0.00347222 MHz, x1 = 0.6954) | electrical conductivity (Frequency=0.004 MHz, x1 = 0.6954) | electrical conductivity (Frequency=0.00446429 MHz, x1 = 0.6954)
1.47 ± 0.026 S/m: electrical conductivity (Frequency=0.001 MHz, x1 = 0.0463) | electrical conductivity (Frequency=0.0015 MHz, x1 = 0.0463) | electrical conductivity (Frequency=0.002 MHz, x1 = 0.0463) | electrical conductivity (Frequency=0.0025 MHz, x1 = 0.0463) | electrical conductivity (Frequency=0.003 MHz, x1 = 0.0463) | electrical conductivity (Frequency=0.00347222 MHz, x1 = 0.0463) | electrical conductivity (Frequency=0.004 MHz, x1 = 0.0463) | electrical conductivity (Frequency=0.00446429 MHz, x1 = 0.0463) | electrical conductivity (Frequency=0.005 MHz, x1 = 0.0463)
1.317 ± 0.013 S/m: electrical conductivity (Frequency=0.0025 MHz, x1 = 1) | electrical conductivity (Frequency=0.003 MHz, x1 = 1) | electrical conductivity (Frequency=0.00347222 MHz, x1 = 1) | electrical conductivity (Frequency=0.004 MHz, x1 = 1) | electrical conductivity (Frequency=0.00446429 MHz, x1 = 1)
1.67 ± 0.017 S/m: electrical conductivity (Frequency=0.0005 MHz, x1 = 0.6954)
2.67 ± 0.027 S/m: electrical conductivity (Frequency=0.0025 MHz, x1 = 0.1859) | electrical conductivity (Frequency=0.003 MHz, x1 = 0.1859) | electrical conductivity (Frequency=0.00347222 MHz, x1 = 0.1859) | electrical conductivity (Frequency=0.004 MHz, x1 = 0.1859) | electrical conductivity (Frequency=0.00446429 MHz, x1 = 0.1859) | electrical conductivity (Frequency=0.005 MHz, x1 = 0.1859)
2.54 ± 0.026 S/m: electrical conductivity (Frequency=0.002 MHz, x1 = 0.3029) | electrical conductivity (Frequency=0.0025 MHz, x1 = 0.3029) | electrical conductivity (Frequency=0.003 MHz, x1 = 0.3029) | electrical conductivity (Frequency=0.00347222 MHz, x1 = 0.3029) | electrical conductivity (Frequency=0.004 MHz, x1 = 0.3029) | electrical conductivity (Frequency=0.00446429 MHz, x1 = 0.3029)
11.38 ± 0.25 mPa·s: viscosity (x1 = 0.4985)
1.46 ± 0.026 S/m: electrical conductivity (Frequency=0.0005 MHz, x1 = 0.0463)
1.39 ± 0.014 S/m: electrical conductivity (Frequency=0.0005 MHz, x1 = 0.9013) | electrical conductivity (Frequency=0.001 MHz, x1 = 0.9013) | electrical conductivity (Frequency=0.0015 MHz, x1 = 0.9013) | electrical conductivity (Frequency=0.002 MHz, x1 = 0.9013) | electrical conductivity (Frequency=0.0025 MHz, x1 = 0.9013) | electrical conductivity (Frequency=0.003 MHz, x1 = 0.9013) | electrical conductivity (Frequency=0.00347222 MHz, x1 = 0.9013) | electrical conductivity (Frequency=0.004 MHz, x1 = 0.9013) | electrical conductivity (Frequency=0.00446429 MHz, x1 = 0.9013)
2.526 ± 0.025 S/m: electrical conductivity (Frequency=0.0005 MHz, x1 = 0.3029)
2.606 ± 0.026 S/m: electrical conductivity (Frequency=0.0005 MHz, x1 = 0.2493)
2.51 ± 0.026 S/m: electrical conductivity (Frequency=0.0005 MHz, x1 = 0.1449) | electrical conductivity (Frequency=0.001 MHz, x1 = 0.1449) | electrical conductivity (Frequency=0.0015 MHz, x1 = 0.1449) | electrical conductivity (Frequency=0.002 MHz, x1 = 0.1449) | electrical conductivity (Frequency=0.0025 MHz, x1 = 0.1449) | electrical conductivity (Frequency=0.003 MHz, x1 = 0.1449) | electrical conductivity (Frequency=0.00347222 MHz, x1 = 0.1449) | electrical conductivity (Frequency=0.004 MHz, x1 = 0.1449) | electrical conductivity (Frequency=0.00446429 MHz, x1 = 0.1449) | electrical conductivity (Frequency=0.005 MHz, x1 = 0.1449)
2.612 ± 0.026 S/m: electrical conductivity (Frequency=0.00347222 MHz, x1 = 0.2493) | electrical conductivity (Frequency=0.004 MHz, x1 = 0.2493) | electrical conductivity (Frequency=0.00446429 MHz, x1 = 0.2493) | electrical conductivity (Frequency=0.005 MHz, x1 = 0.2493)
2.65 ± 0.027 S/m: electrical conductivity (Frequency=0.0005 MHz, x1 = 0.1859) | electrical conductivity (Frequency=0.001 MHz, x1 = 0.1859)
18.62 ± 0.42 mPa·s: viscosity (x1 = 0.6954)
1.316 ± 0.013 S/m: electrical conductivity (Frequency=0.001 MHz, x1 = 1) | electrical conductivity (Frequency=0.0015 MHz, x1 = 1) | electrical conductivity (Frequency=0.002 MHz, x1 = 1)
2.611 ± 0.026 S/m: electrical conductivity (Frequency=0.0025 MHz, x1 = 0.2493) | electrical conductivity (Frequency=0.003 MHz, x1 = 0.2493)
2.608 ± 0.026 S/m: electrical conductivity (Frequency=0.001 MHz, x1 = 0.2493)
1.315 ± 0.013 S/m: electrical conductivity (Frequency=0.0005 MHz, x1 = 1)
33.71 ± 0.77 mPa·s: viscosity (x1 = 1)
2.66 ± 0.027 S/m: electrical conductivity (Frequency=0.0015 MHz, x1 = 0.1859) | electrical conductivity (Frequency=0.002 MHz, x1 = 0.1859)
